# Assay results: patent publication US9446019B2, “Sparstolonin B based pharmaceutical agent for neuroblastoma treatment” (University of South Carolina, priority 2013, dated 2016)
# How the values were obtained:
# [1] = tested on: caspase-3 in neuroblastoma cells; experiment: Cleaved caspase-3 by immunofluorescence and Western blotting; type: cell-based, human
# Method: For immunofluorescence staining, cells grown in Lab-TekII chamber slides (Fisher Scientific, Pittsburgh, Pa.) were treated with SsnB in complete culture medium. After treatments, cells were washed with 1×PBS, fixed with 4% paraformaldehyde/PBS for 20 min, and permeabilized with 0.2% Triton X-100/PBS for 10 min at room temperature. Cells were washed with 1×PBS for 3 times and blocked with 5% immunoglobulin (IgG) free-bovine serum albumin (BSA; Jackson ImmunoResearch Laboratories, West Grove, Pa.) in 1×PBS for overnight at 4° C. Cells were incubated with antibody raised against active form of caspase-3 (Cell Signaling Technology, Danvers, Mass.) diluted in 2.5% BSA/PBS for overnight at 4° C. Primary antibodies were detected with secondary antibodies conjugated with fluorescein isothiocyanate (FITC; Santa Cruz Biotechnology, Dallas, Tex.) for 2 h at room temperature. After washing with 1×PBS, cells were mounted with antifade Vectashield mounting media (Vector Laboratories, Burlingame, Calif.), and signals were visualized under Nikon-E600 fluorescence microscope. Nuclei were counterstained with 4′,6-diamidino-2-phenylindole (DAPI; Sigma).
# After treatment with SsnB, cells were collected, washed with 1×PBS, and lysed with 1× cell lysis buffer (Cell Signaling Technology, Danvers, Mass.) containing phenylmethylsulfonyl fluoride (PMSF) and protease inhibitors (aprotinin and leupeptin) for 30 min on ice, and centrifuged at 12000×rpm for 10 min at 4° C. Supernatant (total cell protein) was collected and stored at −80° C. Protein concentration was determined by bicinchoninic acid method using BCA protein assay kit (Pierce/ThermoScientific, Waltham, Mass.). Equal amount of proteins were diluted with 5× Laemmli samples loading buffer and boiled for five minutes. The proteins were subjected to sodium dodecyl sulfate (SDS)-polyacrylamide gel electrophoresis and analyzed by Western blots. Briefly, after electrophoresis, proteins were transferred on polyvinylidene difluoride (PVDF) membrane at 100 volt for 3 h in cold room. Membrane was blocked with 5% non-fat dry milk/TBST (20 mM Tris-Cl, pH 7.4; 150 mM NaCl with 0.1% Tween-20) for 4 h at room temperature followed by incubation in primary antibodies diluted in 2.5% non-fat dry milk/TBST for overnight at 4° C. After washing with TBST, membrane was incubated with secondary antibodies (horseradish peroxidase-conjugated goat anti-rabbit or goat anti-mouse IgG; Santa Cruz Biotechnology, Dallas, Tex.) diluted in 2.5% non-fat dry milk/TBST for 3 h at room temperature. Signals were detected by chemiluminiscence detection kit (Pierce/Thermo Fisher Scientific, Rockford, Ill.). Primary antibodies used were cleaved caspase-3 and β-actin (Cell Signaling Technology), N-myc and p53 (Santa Cruz Biotechnology).
# At cellular level, mitochondria- or receptor (Fas/FasL)-mediated pathways activate caspase signaling cascade which in turn induces DNA damage and initiates programmed cell death (apoptosis). To determine whether SsnB-induced cell death is mediated by caspase activation, Western blotting as well as immunofluorescence assay were performed to detect the active form of caspase-3 in neuroblastoma cells treated with SsnB for 2 days (SH-SY5Y and IMR-32 cells), 3 days (NGP cells) or 4 days (SKNF-1 and SK-N-BE(2) cells). The number of cleaved caspase-3 positive cells were quantitated by ImageJ programme and plotted. […]
# [2] = tested on: SH-SY5Y tumors; type: in vivo
# Method: Six-week-old female homozygous athymic nude mice (nu/nu; strain-Crl:NU-Foxn1nu) were purchased from Charles River Laboratories (Wilmington, Mass.), and housed in the University of South Carolina Animal Research Facility. All animal experiments were carried out in compliance with the National Institute of Health (NIH) guidelines and were approved by the Institutional Animal Care and Use Committee (IACUC) of the University of South Carolina. The animals were maintained at 25° C. with a 12-h light/12-h dark cycle in laminar flow cabinets under specific pathogen-free conditions and given sterile water and food ad libitum.
# A neuroblastoma xenograft mice model using SH-SY5Y cells was used. To develop localized subcutaneous tumors, 2×10^7 SH-SY5Y cells were mixed 1:1 with matrigel (BD biosciences, San Jose, Calif.) to make 0.1 ml total volume, and cells were injected subcutaneously into the flank region of mice using sterile 27-gauge needle. The animal weight and general appearance were recorded regularly throughout the experiments. On every third day, tumor size was measured with calipers and tumor volume was calculated using the ellipsoid formula (length×width×height×0.5).
# Tumor-bearing mice were divided into two groups—(i) control without SsnB treatment, n=4; and (ii) experimental with SsnB treatment (10 mg/kg body weight per mice), n=4. […]
# Paraformaldehyde-fixed paraffin-embedded tumor sections (5 μm thick) were deparaffinized in xylene and rehydrated with sequential immersion in graded ethanol (100%, 95%, 85%, 70% and 50%). […] Primary antibodies were detected with secondary antibodies conjugated with fluorescein isothiocyanate (FITC) (1:4000 dilution in 5% IgG-free BSA/PBS) for 2 h at room temperature. After washing with 1×PBS for 4 times (10 min for each washing), sections were mounted with antifade Vectashield mounting media (Vector Laboratories, Burlingame, Calif.), and signals were visualized under Nikon-E600 fluorescence microscope (Nikon, Tokyo, Japan). […]
compound,measurement,setting,value
"O=c1occ2c3c(ccc(O)c13)Oc1ccc(O)cc1-2 [SsnB, 8,5′-dihydroxy-4-phenyl-5,2′-oxidoisocoumarin]","cleaved caspase-3 level, Western blot","[1]; SsnB 1 μM, nonsignificant vs control",almost undetectable levels
same,"cleaved caspase-3 protein bands (17 and 19 kDa), Western blot",[1]; SsnB 10 μM,present
same,cleaved caspase-3 positive cells (immunofluorescence),[1]; SsnB 10 μM vs DMSO or SsnB 1 μM,significantly increased
same,exposure time at which caspase-3 cleavage is seen,"[1]; SsnB 10 μM, SH-SY5Y cells, time points 6, 12, 24, 48 h",≤ 6 h
same,average tumor volume,"[2]; 10 mg/kg body weight daily intraperitoneal, 15 days, control 883.75±68.23 mm^3",146.5±14.08 mm^3
same,cleaved caspase-3 signals in tumors,"[2]; 10 mg/kg, immunohistochemistry, p<0.05 vs control",significantly detected
same,TUNEL positive cells in tumors,"[2]; 10 mg/kg, p<0.05 vs control",increased the number of TUNEL positive cells
